Experimental data as given in patent US20110217300A1, “Quinazolinone Compounds and Methods of Use Thereof” (priority 2007, published 2011).

How the values were obtained:
Experiment in all cases: MTS cell viability assay
Assay type in all cases: cell-based
786-O = details: Homo sapiens, 786-0, kidney
Protocol: (§1) Cell viability was determined by measuring the activity of dehydrogenase enzymes in metabolically active cells using a tetrazolium compound, MTS. The assay was performed as described in Promega Technical Bulletin No. 169 (CellTiter 96 Aqueous Non-Radioactive Cell Proliferation Assay). Two human cancer cell lines were assayed (see, Table 1). Cells were maintained at 37° C. and 5% CO2 in DMEM media (4.5 g/L glucose) supplemented with 10% heat-inactivated FBS, 10 mM L-glutamine, and 10 mM Hepes pH 7.5. Briefly, cells were seeded in 96-well plates as set forth in Table 1 and incubated for 16-24 hours. Candidate compounds were serially diluted in DMSO, further diluted in cell culture media, and then added to cells (final DMSO concentration of 0.33%). Cells were incubated in the presence of candidate compound for 72 hours. MTS stock solution (MTS 2 gm/L, PMS […] in PBS) was added to the cells (final concentration MTS […] and PMS 7.67 mg/L) and incubated for 4 hours. SDS was added to a final concentration of 1.4% and absorbance at 490 nm was measured within two hours using a plate reader. […] GI50 values were given in Table 2 for the compounds listed. The Compound Numbers in Table 2 correspond to the numbers listed parenthetically in the Example titles. Where multiple measurements were made by different technicians, both values are given.
(§2) Cell viability was determined for N-(3-amino-propyl)-3-chloro-N—[(R)-1-(7-chloro-4-oxo-3-phenylamino-3,4-dihydro-quinazolin-2-yl)-but-3-ynyl]-2-fluoro-benzamide (compound I of Table 2). The cell viability assay of Example 105 was used. GI50 was determined using a variety of cell lines. Cells were plated at 100-5000 cells per well. At least 2 replicates were performed. Where multiple measurements were made by different technicians, both values are given.

AN3CA = details: Homo sapiens, AN3-CA, endometrial
Protocol: as §1, §2

CAKI-1 = details: Homo sapiens, kidney
Protocol: as §1, §2

CCS292 = details: Clear cell Sarcoma
Protocol: as §1, §2

COLO-205 = details: Homo sapiens, colon
Protocol: as §1, §2

HCT-15 = details: Homo sapiens, colon
Protocol: as §1, §2

HEC1A = details: Homo sapiens, HEC-1-A, endometrial
Protocol: as §1, §2

HEP-G2 = details: Homo sapiens, HepG2, Hepatocellular carcinoma
Protocol: as §1, §2

HT-1080 = details: Homo sapiens, Fibrosarcoma
Protocol: as §1, §2

KG-1 = details: Homo sapiens, AML
Protocol: as §1, §2

LoVo = details: Homo sapiens, Colorectal Carcinoma
Protocol: as §1, §2

MCF-7 = details: breast
Protocol: as §1, §2

MIA-PaCa2 = details: Homo sapiens, MIA PaCa-2, Pancreas
Protocol: as §1, §2

NCI-H1299 = details: Homo sapiens, Non-small cell lung carcinoma
Protocol: as §1, §2

NCI-H1993 = details: Lung adenocarcinoma
Protocol: as §1, §2

NCI-H358 = details: Homo sapiens, Non-small cell lung cancer, brancioalveolar carcinoma
Protocol: as §1, §2

NCI-H441 = details: Lung Papillary Adenocarcinoma
Protocol: as §1, §2

NTERA-2 c1. D1 = details: NTERA2, Testis pluripotent embryonal carcinoma
Protocol: as §1, §2

PANC-1 = details: Homo sapiens, Pancreas epithelioid carcinoma
Protocol: as §1, §2

RKO = details: Homo sapiens, Colon Carcinoma
Protocol: as §1, §2

RT-112 = details: Human urinary bladder cell carcinoma
Protocol: as §1, §2

RT-4 = details: Human urinary bladder cell carcinoma
Protocol: as §1, §2

SK-HEP-1 = details: Homo sapiens, SK-HEP1, Liver adenocarcinoma
Protocol: as §1, §2

SK-LMS-1 = details: Leiomyosarcoma
Protocol: as §1, §2

SK-MEL-28 = details: Malignant melanoma
Protocol: as §1, §2

SKMES-1 = details: Homo sapiens, SK-MES-1, Squamous cell carcinoma
Protocol: as §1, §2

SNU-16 = details: Homo sapiens, Gastric Carcinoma
Protocol: as §1, §2

SNU-1 = details: Homo sapiens, SNU1, Stomach
Protocol: as §1, §2

SNU475 = details: Homo sapiens, SNU-475, liver
Protocol: as §1, §2

SW480 = details: colon
Protocol: as §1, §2

WIDR = details: Homo sapiens, Colorectal adenocarcinoma
Protocol: as §1, §2

WM-266.4 = details: Homo sapiens, WM 266-4, Melanoma
Protocol: as §1, §2

## C#CC[C@H](c1nc2cc(Cl)ccc2c(=O)n1Nc1ccccc1)N(CCCN)C(=O)c1cccc(Cl)c1F [Compound 1, N-(3-Amino-propyl)-3-chloro-N—[(R)-1-(7-chloro-4-oxo-3-phenylamino-3,4-dihydro-quinazolin-2-yl)-but-3-ynyl]-2-fluoro-benzamide]
786-O
  GI50: 1740 nM
AN3CA
  GI50: 201 nM
CAKI-1
  GI50: 2170 nM
CCS292
  GI50: 833 nM
COLO-205
  GI50: 106 nM
HCT-15
  GI50: 3020 nM
HEC1A
  GI50: 316 nM
HEP-G2
  GI50: 3840 nM
HT-1080
  GI50: 149 nM
KG-1
  GI50: 1720 nM
LoVo
  GI50: 359 nM
MCF-7; Homo sapiens, MCF7, MCF-7
  GI50: 5080 nM
MCF-7; MCF-7, listed as I
  GI50: 4830 nM
MIA-PaCa2
  GI50: 259 nM
NCI-H1299
  GI50: 549 nM
NCI-H1993; Homo sapiens, NCI-H1993, NCI-H1993
  GI50: 2420 nM
NCI-H1993; NCI-H1993, listed as I
  GI50: 1660 nM
NCI-H358
  GI50: 190 nM
NCI-H441; Homo sapiens, NCI-H441, NCI-H441
  GI50: 3340 nM
NCI-H441; NCI-H441, listed as I
  GI50: 2250 nM
NTERA-2 c1. D1
  GI50: 63 nM
PANC-1
  GI50: 1170 nM
RKO
  GI50: 110 nM
RT-112
  GI50: 53 nM
RT-4
  GI50: 368 nM
SK-HEP-1
  GI50: 319 nM
SK-LMS-1
  GI50: 2210 nM
SK-MEL-28; Homo sapiens, SK-MEL-28, SK-MEL-28
  GI50: 2160 nM
SK-MEL-28; SK-MEL-28, listed as I
  GI50: 3130 nM
SKMES-1
  GI50: 1000 nM
SNU-16
  GI50: 136 nM
SNU-1
  GI50: 552 nM
SNU475
  GI50: 2350 nM
SW480; Homo sapiens, SW480, SW480
  GI50: 1270 nM
SW480; SW480, listed as I
  GI50: 1220 nM
WIDR
  GI50: 783 nM
WM-266.4
  GI50: 2300 nM
